Source: PubChem BioAssay (NCI)
“And” between values parts separate entries of the source, which are not always exact repeats. Identical values can stand only once.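 Following 48 hours of exposure in 96-well plates, responses at five concentrations were used to interpolate endpoints linearly. GI50 = concentration required for 50% inhibition of growth. TGI: concentration producing complete growth inhibition.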

Legend:
Test in all cases: DTP human tumour cell line panel, 48 h
786-0 renal = test system: 786-0 renal
A498 renal = test system: A498 renal
A549 NSCLC = test system: A549 NSCLC
ACHN renal = test system: ACHN renal
BT-549 breast = test system: BT-549 breast
CAKI-1 renal = test system: CAKI-1 renal
CCRF-CEM leukemia = test system: CCRF-CEM leukemia
COLO 205 colon = test system: COLO 205 colon
DU-145 prostate = test system: DU-145 prostate
EKVX NSCLC = test system: EKVX NSCLC
HCC-2998 colon = test system: HCC-2998 colon
HCT-116 colon = test system: HCT-116 colon
HCT-15 colon = test system: HCT-15 colon
HL-60(TB) leukemia = test system: HL-60(TB) leukemia
HOP-62 NSCLC = test system: HOP-62 NSCLC
HOP-92 NSCLC = test system: HOP-92 NSCLC
HS 578T breast = test system: HS 578T breast
HT29 colon = test system: HT29 colon
IGROV1 ovarian = test system: IGROV1 ovarian
K-562 leukemia = test system: K-562 leukemia
KM12 colon = test system: KM12 colon
LOX IMVI melanoma = test system: LOX IMVI melanoma
M14 melanoma = test system: M14 melanoma
MALME-3M melanoma = test system: MALME-3M melanoma
MCF7 breast = test system: MCF7 breast
MDA-MB-231 breast = test system: MDA-MB-231 breast
MDA-MB-435 = test system: MDA-MB-435
MDA-N = test system: MDA-N
MOLT-4 leukemia = test system: MOLT-4 leukemia
NCI-H226 lung = test system: NCI-H226 lung
NCI-H23 lung = test system: NCI-H23 lung
NCI-H460 lung = test system: NCI-H460 lung
NCI-H522 lung = test system: NCI-H522 lung
NCI/ADR-RES ovarian = test system: NCI/ADR-RES ovarian
OVCAR-3 ovarian = test system: OVCAR-3 ovarian
OVCAR-4 ovarian = test system: OVCAR-4 ovarian
OVCAR-5 ovarian = test system: OVCAR-5 ovarian
OVCAR-8 ovarian = test system: OVCAR-8 ovarian
PC-3 prostate = test system: PC-3 prostate
RPMI-8226 leukemia = test system: RPMI-8226 leukemia
RXF 393 renal = test system: RXF 393 renal
SF-268 CNS = test system: SF-268 CNS
SF-295 CNS = test system: SF-295 CNS
SF-539 CNS = test system: SF-539 CNS
SK-MEL-2 melanoma = test system: SK-MEL-2 melanoma
SK-MEL-28 melanoma = test system: SK-MEL-28 melanoma
SK-MEL-5 melanoma = test system: SK-MEL-5 melanoma
SK-OV-3 ovarian = test system: SK-OV-3 ovarian
SN12C renal = test system: SN12C renal
SNB-19 CNS = test system: SNB-19 CNS
SNB-75 CNS = test system: SNB-75 CNS
SR leukemia = test system: SR leukemia
SW-620 colon = test system: SW-620 colon
T-47D breast = test system: T-47D breast
TK-10 renal = test system: TK-10 renal
U251 CNS = test system: U251 CNS
UACC-257 melanoma = test system: UACC-257 melanoma
UACC-62 melanoma = test system: UACC-62 melanoma
UO-31 renal = test system: UO-31 renal

What does the source list for `CCOC(=O)[C@]1(OC(C)=O)C[C@H](OC(C)=O)[C@@H](C(F)COP(=O)(OCc2ccccc2)OCc2ccccc2)O1` (some centres not stated)?
GI50 (786-0 renal): 39 µM and > 100 µM; TGI (786-0 renal): > 100 µM; GI50 (A498 renal): 24.7 µM and > 100 µM; TGI (A498 renal): 52.8 µM and > 100 µM; TGI (A549 NSCLC): > 100 µM; GI50 (ACHN renal): 34.8 µM and > 100 µM; TGI (ACHN renal): > 100 µM; TGI (BT-549 breast): > 100 µM; TGI (CAKI-1 renal): > 100 µM; TGI (CCRF-CEM leukemia): > 100 µM; GI50 (COLO 205 colon): 19.4 µM and > 100 µM; TGI (COLO 205 colon): 36.3 µM and > 100 µM; TGI (DU-145 prostate): > 100 µM; GI50 (EKVX NSCLC): 26.3 µM and > 100 µM; TGI (EKVX NSCLC): 71.3 µM and > 100 µM; TGI (HCC-2998 colon): > 100 µM; GI50 (HCT-116 colon): 23.4 µM and > 100 µM; TGI (HCT-116 colon): 57.9 µM and > 100 µM; GI50 (HCT-15 colon): 33.1 µM and > 100 µM; TGI (HCT-15 colon): > 100 µM; GI50 (HL-60(TB) leukemia): 31.9 µM and > 100 µM; TGI (HL-60(TB) leukemia): 86.6 µM and > 100 µM; TGI (HOP-62 NSCLC): > 100 µM; TGI (HOP-92 NSCLC): 34.5 µM; TGI (HS 578T breast): > 100 µM; GI50 (HT29 colon): 28.2 µM and > 100 µM; TGI (HT29 colon): 83 µM and > 100 µM; GI50 (IGROV1 ovarian): 19.6 µM and > 100 µM; TGI (IGROV1 ovarian): 39.8 µM and > 100 µM; TGI (K-562 leukemia): > 100 µM; GI50 (KM12 colon): 19.3 µM and > 100 µM; TGI (KM12 colon): 41.2 µM and > 100 µM; GI50 (LOX IMVI melanoma): 29.4 µM and > 100 µM; TGI (LOX IMVI melanoma): > 100 µM; GI50 (M14 melanoma): 49.4 µM and > 100 µM; TGI (M14 melanoma): > 100 µM; GI50 (MALME-3M melanoma): 13.9 µM and > 100 µM; TGI (MALME-3M melanoma): 33.8 µM and > 100 µM; GI50 (MCF7 breast): 20.8 µM and > 100 µM; TGI (MCF7 breast): 45.6 µM and > 100 µM; TGI (MDA-MB-231 breast): > 100 µM; GI50 (MDA-MB-435): 18.3 µM and 79.2 µM; TGI (MDA-MB-435): 38.2 µM and > 100 µM; TGI (MDA-N): > 100 µM; TGI (MOLT-4 leukemia): > 100 µM; TGI (NCI-H226 lung): > 100 µM; GI50 (NCI-H23 lung): 48.9 µM and > 100 µM; TGI (NCI-H23 lung): > 100 µM; GI50 (NCI-H460 lung): 18.4 µM and > 100 µM; TGI (NCI-H460 lung): 39.9 µM and > 100 µM; GI50 (NCI-H522 lung): 28.3 µM and > 100 µM; TGI (NCI-H522 lung): 93.7 µM and > 100 µM; TGI (NCI/ADR-RES ovarian): > 100 µM; GI50 (OVCAR-3 ovarian): 29.6 µM and > 100 µM; TGI (OVCAR-3 ovarian): 79.4 µM and > 100 µM; GI50 (OVCAR-4 ovarian): 18 µM and > 100 µM; TGI (OVCAR-4 ovarian): 39 µM and > 100 µM; GI50 (OVCAR-5 ovarian): 32.7 µM and > 100 µM; TGI (OVCAR-5 ovarian): 95 µM and > 100 µM; TGI (OVCAR-8 ovarian): > 100 µM; TGI (PC-3 prostate): 88 µM and > 100 µM; TGI (RPMI-8226 leukemia): 46.5 µM and 82.5 µM; GI50 (RXF 393 renal): 24.5 µM and > 100 µM; TGI (RXF 393 renal): 68.2 µM and > 100 µM; TGI (SF-268 CNS): > 100 µM; GI50 (SF-295 CNS): 47.9 µM and > 100 µM; TGI (SF-295 CNS): > 100 µM; TGI (SF-539 CNS): > 100 µM; GI50 (SK-MEL-2 melanoma): 25 µM and > 100 µM; TGI (SK-MEL-2 melanoma): 78.4 µM and > 100 µM; TGI (SK-MEL-28 melanoma): > 100 µM; TGI (SK-MEL-5 melanoma): > 100 µM; TGI (SK-OV-3 ovarian): > 100 µM; TGI (SN12C renal): > 100 µM; GI50 (SNB-19 CNS): 32.9 µM and > 100 µM; TGI (SNB-19 CNS): > 100 µM; TGI (SNB-75 CNS): > 100 µM; GI50 (SR leukemia): 30.2 µM and > 100 µM; TGI (SR leukemia): > 100 µM; GI50 (SW-620 colon): 20.2 µM and > 100 µM; TGI (SW-620 colon): 42.8 µM and > 100 µM; GI50 (T-47D breast): 34.2 µM and > 100 µM; TGI (T-47D breast): 93.1 µM and > 100 µM; GI50 (TK-10 renal): 18.8 µM and > 100 µM; TGI (TK-10 renal): 35.7 µM and > 100 µM; GI50 (U251 CNS): 35.9 µM and > 100 µM; TGI (U251 CNS): > 100 µM; TGI (UACC-257 melanoma): > 100 µM; GI50 (UACC-62 melanoma): 16.9 µM and > 100 µM; TGI (UACC-62 melanoma): 33.8 µM and > 100 µM; GI50 (UO-31 renal): 21.6 µM and > 100 µM; TGI (UO-31 renal): 43.5 µM and > 100 µM
